Reference: patent US20060167057A1, “Compounds for the treatment of CNS and amyloid associated diseases” (priority 2004, published 2006)

Test system: SH-SY5Y cells
Assay: Hoechst staining assay of Aβ1-42-induced apoptosis
Format: cell-based
Conditions: Homo sapiens, 10 μM Aβ1-42, 200 μM compound, 24 hours, read-out: inhibition of Aβ-induced cellular apoptosis at DNA level
Protocol: SH-SY5Y cells were cultured and sub-cultured according to ATCC's recommendations. Cells were grown in a culture medium containing 10% fetal bovine serum (FBS), 1× non-essential amino acids in a 1:1 mixture of Eagle's minimum essential medium and Ham's F12 medium.
For passage, cells were trypsinized with 0.25% (w/vol) Trypsin/Ethylene-diaminetetraacetic (EDTA) for 5 min at 37° C., and then centrifuged for 5 min at 300× g (GS-6R Beckman Centrifuge). The pellet was resuspended in the culture medium and the cell density was adjusted.
Synthetic Aβ1-42 is purchased from American Peptide Company, Sunnyvale, Calif. […] The exact concentration of the solution is calculated by measuring the optical density at 280 nm. […]
Nuclear morphology was observed using an Olympus fluorescent microscope IX50 equipped with an Olympus Camera (20× objectif and a bandpass filter (Ex/Em: 355 nm/465 nm). Live cells and cells considered morphologically apoptotic were counted. Apoptotic nuclei of undifferentiated SH-SY5Y appear condensed and occasionally fragmented (representative pictures of Hoechst staining are in FIGS. 1A-1B for vehicle and 2A-2B for Aβ).
Five random fields were captured for each condition in a blinded fashion. Apoptotic and normal nuclei in each field were quantified by manual examination. […] The total number of cells counted in each condition ranged from 120 to 550. […]

Structure (SMILES): N[C@@H](Cc1cccc(CSc2nnc(-c3ccccc3)[nH]2)c1)C(=O)O [drawing 537]
- inhibition at 200 µM: 22.5%
